Key:
Ci = Ci induction in cl-8 cells with or without HH-N conditioned medium, Western blot; assay type: cell-based, Drosophila; conditions: up to 100 nM, 4 hours, presence of HH or not
Experimental: cl-8 cells were cultured as described in Van Leeuwen, F., et al. Nature, 368:342-344, 1994. Culture and transfection of S2 cells were performed as described in Porter, J. A. et al. Cell, 86: 21-34, 1996. The conditioned medium was made by culturing transfected S2 cells in cl-8 medium, and induced by adding CUSO4, to the final concentration of 0.5 Mm overnight. The conditioned medium was harvested the next day, centrifuged to remove S2 cells and the supernatant was used. To make lysate from cl-8 cells, cl-8 cells were washed, harvested in cold phosphate buffered saline (PBS), and then resuspended in NP-40 lysis buffer (150 Mm NaCl, 50 Mm Tris pH8, 1% NP-40, 1 Mm EDTA, 20 μg/ml aprotinin, 20 μg/ml leupeptin, 1 μg/ml pepstatin A, 2.5 μg/ml antipain, 100 μM PMSF, 50 mM NaF, 5 mM Na2P4O7). Cells were lysed at 4° C. for 10 minutes, then centrifuged at 13,000×g for 10 minutes. The supernatant was saved for Western blot analysis.
SDS-PAGE and protein transfer were carried out by standard methods. The primary antibodies used were: rat monoclonal anti-Ci 2Al 1:20 dilution; mouse monoclonal anti-Ptc 1:1000 dilution; mouse monoclonal anti-actin 1:2500. Secondary antibodies were from Jackson Immunologicals. The filters were developed using SuperSignal from Pierce.
Tautomycin (TAU) and okadaic acid (OA) were purchased from Calbiochem and dissolved in dimethyl sulfoxide (DMSO) to different concentrations. The phosphatase inhibitors were mixed with conditioned medium and the concentration of DMSO was adjusted to 0.2% for each sample. cl-8 cells were incubated with conditioned medium and phosphatase inhibitor mixture for 4 hours and lysed for analysis.

phosphatase 1 (PP1) = conditions: read-out: IC50, phosphatase 1 (PP1) inhibition; cited from earlier work
COUP-TFII mRNA = COUP-TFII mRNA in P19 cells, RNase protection assay; assay type: cell-based, mouse; conditions: for Shh-induced COUP-TFII mRNA: with 1.0 nM Shh-N
Experimental: The P19 mouse embryo carcinoma cell line which was earlier shown to contain increased levels of COUP-TF transcripts after retinoid treatment was utilized. Jonk, L. J. C., et al., Mechan. of Dev. (1994) 47:81-97). Conditioned media obtained from COS-1 cells transfected with mouse Shh-N cDNA expression plasmid or purified E. coli expressed recombinant Shh-N was used.
Briefly, a total of 20 μg RNA was hybridized to a 450 (FIG. 5A) or 120 (FIG. 7B) nucleotide riboprobe that corresponds to the 5′ untranslated region (UTR) of the COUP-TFII gene along with a 670 (FIG. 5A) or 102 (FIG. 7B) nucleotide riboprobe of the murine Cyclophilin A coding region. The RPA II™ kit from Ambion was used to perform the RNase protection assay. The products were subjected to RNase digestion and analyzed on a 6% urea polyacrylamide gel.
(§1) P-19 cells were treated with phosphatase inhibitors to study the endogenous levels of COUP-TFII mRNA. […] Total RVA was isolated from these cells and 20 μg of RNA was used in a RNase protection assay as described above in Example 6. A region of the murine Cyclophilin A cDNA was used to generate riboprobe and was used as an internal control. P19 cells were co-treated with (FIG. 7C, lane 2, 4, 6, and 7) or without (FIG. 7C, lane 1, 3, and 5) 1.0 nM Shh-N and 5 nM OA (lane 3 and 4), 0.5 nM CyA (FIG. 7C, lane 5 & 6) or 5 nm NoA (FIG. 7C, lane 9). Cells were harvested after 24 hours of treatment and the nuclear extract was obtained for the binding reactions. Extracts were subjected to an EMSA as described earlier.

ShhRE [1] = assay: EMSA of Shh-induced protein binding to radiolabeled ShhRE, P19 nuclear extracts; assay type: cell-based, mouse; conditions: 1.0 nM Shh-N, 24 hours
Experimental: Methods described in Example 6 were used in addition to the following protocols. P19 cells were treated with or without Shh-N for 24 hours and nuclear extracts were obtained and used in an electrophoretic mobility shift assay (EMSA) with radiolabeled ShhRE. The following oligos were used as competitors or probes in these assays; WT ShhRE—GTTCTACATAATGCGCCG—SEQ ID NO:1; mShhRE—GTTCTACgTgATGCGCCG—SEQ ID NO:3; GliRE—[…]—. SEQ ID NO:4, Different amounts of unlabeled Gli response element (GliRE) (FIG. 5C, lane 3, 100X; lane 4, 50X; lane 5, 25X; and lane 6, 10X) or ShhRE (lane 7; 100X, lane 8; 50X and lane 9; 10X) was used as a competitor at the indicated molar excess.
In EMSA, radiolabeled probe was incubated with the nuclear extracts (10 μg) along with 4 μg poly dG-dC in a binding reaction containing 10 mM Tris pH 7.5, 50 mM NaCl, 1 mM EDTA, 1 mM DTT, 0.1 mg/ml BSA, and 5% glycerol. Later the mixture was loaded onto a 5% polyacrylamide gel and the retarded complexes were separated-in 1× TBE buffer and analyzed using autoradiography.
as §1

lambda phosphatase = molecular target: T1, lambda phosphatase (Escherichia phage lambda, UniProt P03772); assay: Lambda phosphatase treatment of immunoprecipitated Ci, mobility shift; assay type: biochemical; conditions: 1 mM sodium orthovanadate, 30° C. for 1 hour
T1 sequence (P03772 1-221): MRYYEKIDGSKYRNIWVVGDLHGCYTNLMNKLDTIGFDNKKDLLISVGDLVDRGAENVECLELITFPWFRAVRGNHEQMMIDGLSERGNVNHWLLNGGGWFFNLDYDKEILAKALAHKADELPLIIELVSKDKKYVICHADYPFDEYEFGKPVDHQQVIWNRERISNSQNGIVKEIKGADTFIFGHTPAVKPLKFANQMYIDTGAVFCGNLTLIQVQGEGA
Experimental: cl-8 cells were incubated in conditioned medium for 4 hours and lysed on ice for 20 minutes in 1 ml of NP-40 lysis buffer per T75 flask. The lysate was incubated with 100 μl of anti-Ci 2A1 or 0.3 μl of normal rat serum at 4° C. for 2 hours. 50 μl of 50% Protein G beads were added and incubated for 1 hour. The beads were collected and washed in NP-40 lysis buffer, then in lambda phosphatase buffer (50 mM Tris pH 7.8, 5 mM dithiothritol, 20 mM MnCl2, […] bovine serum albumin, 20 μg/ml aprotinin, 20 μg/ml leupeptin, 1 μg/ml pepstatin A, 2.5 μg/ml antipain, 100 μM PMSF). The beads were resuspended in 50 μl of lambda phosphatase buffer, plus 1 mM of sodium orthovanadate or 1.5 μl (30 unit) of lambda phosphatase according to the procedure. Each sample was incubated at 30° C. for 1 hour, then washed in NP-40 lysis buffer, and was boiled in SDS sample buffer for analysis.

ShhRE [2] = assay: ShhRE-tkCAT reporter mRNA and enzyme activity in P19 cells with cycloheximide; assay type: cell-based, mouse; conditions: 50 μM for 14 hours
Experimental: Methods described in Example 6 were used in addition to the following protocols. P19 cells were co-transfected with either three copies of the ShhRE or mutant ShhRE (mShhRE) element placed upstream of the tk-CAT along with tk-LUC plasmid as an internal control. Cells were treated with 1.0 nM Shh-N (12 hours) and with or without 50 μM cycloheximide (Chx) for 14 hours and harvested to obtain total RNA. Sixty μg of total RNA from these cells were used in an RNase protection assay. RNase protection assays were performed as described in Example 6. Specific riboprobes were generated to analyze the relative levels of the CAT and LUC mRNA levels. A 255 bp region of the CAT coding sequence or 123 bp of the luciferase coding region was used to generate an antisense riboprobe and was hybridized with 60 μg of total RNA, obtained from transfected P19 cells. The amount (50 μM) and extent (14 hours) of cycloheximide treatment was based on inhibition of protein synthesis as indicated by a significant loss in reporter enzyme activity.

[3] = tested on: PP1 and PP2A enzyme activity; assay: Protein phosphatase assay on nuclear extracts of control and Shh treated P19 cells; assay type: biochemical, mouse
Experimental: P19 cells were treated with or without 1 nM Shh for 36 hours and nuclear extracts from these cells were obtained as described earlier. A protein phosphatase assay system™ (Life Technologies, Bethesda) was used to quantitate the phosphatase activity present in the control and induced extracts. P19 cells were treated with or without 1 nM Shh for 36 hours and nuclear extracts from these cells were obtained and incubated with 2 nM OA or 4 nM Inh-2 protein for 15 minutes at 30° C. Results are expressed as mean±sd from three separate experiments.

Molecule: CO[C@H]([C@H](O)CC(=O)[C@@H](C)[C@@H](O)CC[C@@H](C)[C@@H]1O[C@]2(CC[C@@H](C)[C@H](CC[C@H](C)C(C)=O)O2)CC[C@@H]1C)[C@H](OC(=O)C[C@@H](O)C1=C(C)C(=O)OC1=O)C(C)C [TAU, Tautomycin]
- effect on Ci (Ci): did not to have any effect
- IC50 (phosphatase 1 (PP1)): 10 nM

Molecule: COC[C@@H]([C@H](O)[C@H](O)C(=O)NCC[C@H](C)c1nc(/C=C/C[C@@H]2O[C@]3(C[C@@H](O)[C@@H]2C)O[C@H]([C@H](C[C@H](O)[C@H](C)[C@H](O)[C@H](C)/C=C(C)/C(C)=C/C=C/C(C)=C\C#N)OC)[C@H](OP(=O)(O)O)C3(C)C)co1)N(C)C [CyA, calyculin A]
- Shh-induced COUP-TFII mRNA (COUP-TFII mRNA; 0.5 nM for 12 hours): complete inhibition
- Shh-induced binding to radiolabeled ShhRE (ShhRE [1]; 0.5 nM): abolished

Molecule: Nor-Okadone [NoA]
- Shh-induced COUP-TFII mRNA (COUP-TFII mRNA; 5 nM for 12 hours): incapable of inhibiting
- Shh-induced binding to radiolabeled ShhRE (ShhRE [1]; 5 nM): unable to inhibit

Molecule: [Na+].[Na+].[Na+].[O]=[V]([O-])([O-])[O-] [sodium orthovanadate]
- effect of lambda phosphatase on Ci mobility (lambda phosphatase): reversed

Molecule: C[C@@H]1C[C@@H]([C@H](O)CC2CC(=O)NC(=O)C2)C(=O)[C@@H](C)C1 [cycloheximide]
- CAT and luciferase activities (ShhRE [2]): inhibited
- Shh-induced increase in CAT mRNA (ShhRE [2]; 1 nM Shh-N): not altered

Molecule: Shh-N: purified E. coli expressed recombinant amino-terminal fragment of mouse Sonic hedgehog
- concentration at which a significant increase in COUP-TFII mRNA was observed (COUP-TFII mRNA; P19 cells, 24 hours, densitometric analysis): ≤ 0.2 nM
- net increase in phosphatase activity after Shh treatment ([3]; 1 nM Shh, 36 hours, P19 nuclear extracts): 2 fold

B1: Inhibitor-2: Inh-2 protein, a specific inhibitor of PP1 (protein, UniProt P41236 2-205, looked up)
Protein phosphatase inhibitor …: AASTASHRPIKGILKNKTSTTSSMVASAEQPRGNVDEELSKKSQKWDEMNILATYHPADKDYGLMKIDEPSTPYHSMMGDDEDACSDTEATEAMAPDILARKLAAAEGLEPKYRIQEQESSGEEDSDLSPEEREKKRQFEMKRKLHYNEGLNIKLARQLISKDLHDDDEDEEMLETADGESMNTEESNQGSTPSDQQQNKLRSS
- Shh-induced phosphatase activity ([3]; 4 nM Inh-2 protein, 15 minutes at 30° C.): unable to inhibit

Reference: patent US6733971B2, “Method for identifying an agent that affects a hedgehog signaling pathway” (priority 1998, dated 2004)
